The subject of one data set is HCT116 cells. Briefly: MTT cell viability HCT116. The data set is classed as cell-based, Human. The settings on record: for IC50: read-out: IC50 values on cancer cell lines. Here is the method: (§1) Human HeLa, A549, HepG2, SH-SY5Y, MCF7 and AGS cells were cultured in DMEM containing 10% FBS, respectively. HCT116 cells were cultured in McCoy’s 5A medium (Procell, Wuhan, China) containing 10% FBS. The cells were cultured in medium containing 100 IU/mL penicillin, 100 µg/mL streptomycin (1% antibiotics) and 25 nM selenite at 37 °C in a humidified incubator with 5% CO2 (Thermo Fisher Scientific, Waltham, MA, USA).
(§2) MTT assay was used to detect cell viability. In brief, cells were seeded in 96-well plates with 5000 cells per well and allowed to stick overnight. […] After treatment, the cell medium was carefully removed from the cultured cells and added with 100 µL fresh FBS-free medium containing 0.5 mg/mL MTT. The medium was incubated in an incubator for 4 h. Then, the medium was removed, and the formazan crystals formed were dissolved in 100 µL DMSO. The absorbance was measured at 570 nm, and 630 nm was set as the reference. The experiments were repeated four times.

In data set [1] the test system is TrxR1. Also noted: method as in PMID 21262347. The settings on record: cited from earlier work.
A further data set relates to HepG2 cells. Briefly: MTT cell viability HepG2. The data set is classed as cell-based, Human. The settings on record: read-out: IC50 values on cancer cell lines. The procedure: as §1, §2
Data set [2] deals with T1, cellular TrxR in HeLa cells (Homo sapiens, UniProt Q16881).
T1 construct: endogenous in cells; host or cells: HeLa
T1 sequence (Q16881 1-499 isoform Q16881-5): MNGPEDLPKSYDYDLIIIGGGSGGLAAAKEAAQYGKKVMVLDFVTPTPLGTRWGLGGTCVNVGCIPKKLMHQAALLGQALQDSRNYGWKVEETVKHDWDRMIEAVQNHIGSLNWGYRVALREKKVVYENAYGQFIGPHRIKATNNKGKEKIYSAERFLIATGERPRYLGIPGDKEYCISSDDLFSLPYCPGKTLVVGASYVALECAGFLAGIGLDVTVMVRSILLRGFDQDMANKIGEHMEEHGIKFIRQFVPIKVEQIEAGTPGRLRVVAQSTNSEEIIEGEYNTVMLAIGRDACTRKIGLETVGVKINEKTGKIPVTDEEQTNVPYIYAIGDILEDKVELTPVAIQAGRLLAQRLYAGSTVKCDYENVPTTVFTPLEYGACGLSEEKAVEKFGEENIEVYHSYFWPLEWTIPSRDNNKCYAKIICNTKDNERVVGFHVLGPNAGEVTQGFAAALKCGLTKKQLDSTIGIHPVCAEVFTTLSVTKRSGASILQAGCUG
Briefly: Cellular TrxR activity, end-point Trx-coupled insulin assay. Type of data set: cell-based. The settings on record: HeLa cells vs untreated controls. The procedure: The cells were then collected and washed twice with ice-cold PBS. The total cell proteins were extracted with the RIPA buffer on ice for 30 min. The TrxR activities in the cell lysates were measured by the end-point Trx-coupled insulin assay and the protein concentration was determined by BCA protein assay kit (Sangon, Shanghai, China), using bovine serum albumin (BSA) as protein standard.

For a further data set, the system named is MCF7 cells. As to the kind of experiment: MTT cell viability MCF7. The data set is classed as cell-based, Human. The settings on record: read-out: IC50 values on cancer cell lines. Here is the method: as §1, §2
Data set [3] concerns HeLa cells. Briefly: ROS generation with DCFH-DA. The settings on record: 12 h, up to 50 µM. The data set is classed as cell-based, Human. Here is the method: After removing the medium, 10 µM DCFH-DA was added and incubated at 37 °C in darkness for 30 min. The cells were then observed and photographed using a Leica inverted fluorescence microscopy (Leica, Germany).
For another data set, the system named is SH-SY5Y cells. As to the kind of experiment: MTT cell viability SH-SY5Y. Type of data set: cell-based, Human. The settings on record: 48 h, read-out: IC50 values on cancer cell lines. Here is the method: as §1, §2
In a further data set the test system is A549 cells. Briefly: MTT cell viability A549. The data set is classed as cell-based, Human. The settings on record: read-out: IC50 values on cancer cell lines. Here is the method:
as §1, §2

A further data set concerns AGS cells. As to the kind of experiment: MTT cell viability AGS. The data set is classed as cell-based, Human. Here is the method:
as §1, §2

For data set [4], the system named is HeLa cells. As to the kind of experiment: MTT cell viability HeLa. Type of data set: cell-based, Human. The settings on record: read-out: IC50 values on cancer cell lines. Here is the method: as §1, §2
The target of data set [5] is T2, wild type TrxR1 (Rattus norvegicus, UniProt O89049).
T2 sequence (O89049 1-499): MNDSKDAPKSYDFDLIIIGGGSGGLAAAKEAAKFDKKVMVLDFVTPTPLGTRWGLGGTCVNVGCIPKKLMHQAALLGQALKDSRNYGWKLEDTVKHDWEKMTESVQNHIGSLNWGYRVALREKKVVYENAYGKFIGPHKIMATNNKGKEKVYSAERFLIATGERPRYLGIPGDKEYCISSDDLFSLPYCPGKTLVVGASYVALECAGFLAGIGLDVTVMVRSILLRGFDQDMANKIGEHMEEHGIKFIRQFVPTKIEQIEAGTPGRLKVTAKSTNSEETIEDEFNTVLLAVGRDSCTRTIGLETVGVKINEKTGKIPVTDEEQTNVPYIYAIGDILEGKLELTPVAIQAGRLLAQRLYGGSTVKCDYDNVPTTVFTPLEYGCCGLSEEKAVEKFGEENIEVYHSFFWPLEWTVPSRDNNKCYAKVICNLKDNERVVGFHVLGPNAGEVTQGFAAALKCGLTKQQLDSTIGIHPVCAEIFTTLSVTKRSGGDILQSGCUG
Experimental: (§3) All food colorants were dissolved in DMSO to prepare a stock solution. […] 5,5′-dithiobis-2-nitrobenzoic acid (DTNB), 3-(4,5)-dimethylthiahiazo (-z-y1)-3,5-di-phenytetrazoliumromide (MTT) and ROS probe DCFH-DA were purchased from Sigma-Aldrich (St Louis, MI, USA). A 50 mM Tris-HCl containing 2 mM EDTA (pH 7.5) was used in all protein-based experiments, if not stated otherwise.
(§4) The enzymatic activities of TrxR1 and its various mutants were determined in parallel with DTNB and 9,10-panathrenequinone (9,10 PQ) as substrates [17]. In DTNB reduction assay, the working reaction mixtures contained 10 nM TrxR1, 2.5 mM DTNB and 300 µM NADPH in 50 mM Tris-HCl and 2 mM EDTA, pH 7.5. […] In the 9,10 PQ reduction assay, the working reaction mixtures contained 30 nM TrxR1, 30 µM 9,10 PQ and 200 µM NADPH, followed by NADPH oxidation at 340 nm for 20 min at room temperature, according to the linear region of the decrease curves (assuming ƐNADPH, 340 nm = 6200 M^−1 cm^−1).

Data set [6] addresses T2, wild type TrxR1. As to the kind of experiment: TrxR1 DTNB reduction assay.
Experimental: as §3, §4
For data set [7], the target named is T3, TrxR1 (Rattus norvegicus, UniProt O89049).
T3 sequence (O89049 1-499): T2 sequence (O89049 1-499)
Briefly: NADPH oxidase activity of TrxR1 (juglone reduction). The settings on record: 500 µM, 30 min in dark, juglone as substrate. Type of data set: biochemical. Here is the method:
NADPH oxidase activity of TrxR1 was measured by juglone reduction method. The final reaction mixture consisted of 30 nM TrxR1, 30 µM juglone (in DMSO) and 200 µM NADPH.

Where two headings read alike, the source gives them in different places.

Regarding `CC(=O)OC[C@H]1O[C@@H]([S-])[C@H](OC(C)=O)[C@@H](OC(C)=O)[C@@H]1OC(C)=O.CCP(CC)CC.[Au+]` [auranofin, reference compound], in the data set with HCT116 cells (auranofin 2.5 h pre-treatment, then chlorophyllin), the “Effect of pre-treatment on sensitivity of HCT116 cells to chlorophyllin” value is recorded as “increasing the sensitivity”.

With `C=CC1=C(C)c2cc3[nH]c(cc4nc(cc5[nH]c(cc1n2)c(C)c5CCC(=O)O)C(CCC(=O)O)=C4C)c(C)c3C=C` [PpIX], the “Kinact in TrxR1 mediated Trx-coupled insulin reduction” value in the data set with TrxR1 [1] is 5 M⁻¹ s⁻¹. Besides, the Ki at TrxR1 [1] (read-out: apparent Ki on TrxR1's Trx reduction) was 2.7 µM.

On to “Sodium copper chlorophyll [chlorophyllin]”, for which the IC50 in the data set on HCT116 cells (HCT116, 24 h) amounted to 43.5 ± 2.6 µM; in the data set on HCT116 cells (HCT116, 48 h) it was 20.2 ± 0.8 µM; in the data set with HepG2 cells (HepG2, 24 h), 36.8 ± 11.2 µM; in the data set on HepG2 cells (HepG2, 48 h), 10.2 ± 3 µM; in the data set with MCF7 cells (MCF7, 24 h), 30.1 ± 7.1 µM; with MCF7 cells (MCF7, 48 h), 6.9 ± 1.1 µM. Further, the IC50 in the data set with SH-SY5Y cells amounted to 31.7 ± 6.7 µM; in the data set with A549 cells (A549, 24 h), 40.7 ± 3.9 µM; in the data set with A549 cells (A549, 48 h) it was 10.3 ± 1.4 µM; with AGS cells (48 h, read-out: IC50 values on cancer cell lines) it was 49.6 ± 24.7 µM; in the data set with HeLa cells [4] (24 h), 47.9 ± 13.5 µM; with HeLa cells [4] (48 h), 10.4 ± 4.3 µM. Besides, the “Inhibition of cellular TrxR1 activity” value in data set [2] was “remarkable inhibition”. In the data set on HeLa cells [3], the “Fluorescent signals of ROS probe DCFH-DA” value is listed as “much higher”.

Turning to hemin, the “Kinact in TrxR1 mediated Trx-coupled insulin reduction” value with TrxR1 [1] is 4.33 M⁻¹ s⁻¹.

In the case of `CC(=O)N[C@@H](CS)C(=O)O` [NAC, N-acetyl-L-cysteine, reference compound], the “Effect of co-treatment on chlorophyllin cytotoxicity” value in the data set with HCT116 cells (HCT116, 100 µM or 500 µM NAC, 24 h co-treatment) is “protect cell from chlorophyllin”; with AGS cells (100 µM or 500 µM NAC, 24 h co-treatment), “protect cell from chlorophyllin”.

As to `CC1=C[C@H](O)CC(C)(C)[C@H]1/C=C/C(C)=C/C=C/C(C)=C/C=C/C=C(C)/C=C/C=C(C)/C=C/C1=C(C)C[C@@H](O)CC1(C)C` [lutein], at wild type TrxR1 [5], the “Time dependence of TrxR1 inhibition” value is listed as “time-dependent manner”. Further, on wild type TrxR1 [6], it took 306 µM to reach half-maximal inhibition (IC50). Further, on TrxR1 [7], the “Inhibition of NADPH oxidation activity of TrxR1” value is on record as “no inhibition”.

The values are drawn from publication PMC8615155 (Antioxidants, 2021).
